# Data taken from US12251382B2, “Substituted amino-pyrimidine compound for use in a method for treatment and prevention of multiple sclerosis” (Merck Patent GmbH, priority 2018, dated 2025).
# Key:
# [1] = test system: BCR- and FcR-mediated signalling; conditions: variety of human cellular assays; cited from earlier work
# RA and SLE models = conditions: in vivo; cited from earlier work
# [2] = Phase I Part 2 (multiple ascending dose study): safety and tolerability, TEAEs; type: in vivo, human
# Protocol: The decision whether to initiate Part 2 of the study, as well as the MAD starting dose, was determined by the SMC based on review of safety data from Part 1, with PK and PD data also used to inform the decision. Dose-limiting criteria and termination/stopping rules were as per Part 1 of the study. […] Ultimately, dose levels of 25, 75, and 200 mg were selected.
# Data were summarized using descriptive statistics.
# [3] = Part 2, 25 mg once daily, 14 days
# [4] = Part 2, 75 mg once daily, 14 days
# [5] = Part 2, 200 mg once daily, 14 days
# [6] = Part 2, pooled active, listed as evobrutinib
smiles,measurement,setting,value
"C=CC(=O)N1CCC(CNc2ncnc(N)c2-c2ccc(Oc3ccccc3)cc2)CC1 [Evobrutinib, 1-(4-(((6-amino-5-(4-phenoxyphenyl)pyrimidin-4-yl)amino)methyl)piperidin-1-yl)prop-2-en-1-one]",BCR- and FcR-mediated signalling,[1],potently inhibit
same,Activity in RA and SLE models,RA and SLE models,robust activity
same,Relation of gastrointestinal or other TEAEs to dose,[2]; Part 2,No relation to dose was observed
same,Severity of TEAEs and dose-limiting adverse events,[2]; Part 2,mild and no dose-limiting adverse events were reported
same,"Abdominal discomfort, number of TEAEs",[2]; [3],1
same,"Abdominal discomfort, subjects",[2]; [3],1 (11.1) n (%)
same,"Abdominal pain, subjects",[2]; [3],0 (0.0) n (%)
same,"Application site irritation, subjects",[2]; [3],0 (0.0) n (%)
same,"Complex regional pain, number of TEAEs",[2]; [3],1
same,"Complex regional pain, subjects",[2]; [3],1 (11.1) n (%)
same,"Constipation, subjects",[2]; [3],0 (0.0) n (%)
same,"Dry throat, subjects",[2]; [3],0 (0.0) n (%)
same,"Excoriation, number of TEAEs",[2]; [3],1
same,"Excoriation, subjects",[2]; [3],1 (11.1) n (%)
same,"Fatigue, subjects",[2]; [3],0 (0.0) n (%)
same,"Headache, number of TEAEs",[2]; [3],1
same,"Headache, subjects",[2]; [3],1 (11.1) n (%)
same,"Muscle spasms, subjects",[2]; [3],0 (0.0) n (%)
same,"Muscle strain, number of TEAEs",[2]; [3],1
same,"Muscle strain, subjects",[2]; [3],1 (11.1) n (%)
same,"Nausea, subjects",[2]; [3],0 (0.0) n (%)
same,"Overall total TEAEs, subjects",[2]; [3],3 (33.3) n (%)
same,"Overall total, number of TEAEs",[2]; [3],6
same,"Rhinorrhea, number of TEAEs",[2]; [3],1
same,"Rhinorrhea, subjects",[2]; [3],1 (11.1) n (%)
same,"Sneezing, subjects",[2]; [3],0 (0.0) n (%)
same,"Toothache, subjects",[2]; [3],0 (0.0) n (%)
same,"Upper respiratory tract infection, subjects",[2]; [3],0 (0.0) n (%)
same,"Abdominal discomfort, subjects",[2]; [4],0 (0.0) n (%)
same,"Abdominal pain, number of TEAEs",[2]; [4],2
same,"Abdominal pain, subjects",[2]; [4],1 (11.1) n (%)
same,"Application site irritation, number of TEAEs",[2]; [4],1
same,"Application site irritation, subjects",[2]; [4],1 (11.1) n (%)
same,"Complex regional pain, subjects",[2]; [4],0 (0.0) n (%)
same,"Constipation, number of TEAEs",[2]; [4],1
same,"Constipation, subjects",[2]; [4],1 (11.1) n (%)
same,"Dry throat, number of TEAEs",[2]; [4],1
same,"Dry throat, subjects",[2]; [4],1 (11.1) n (%)
same,"Excoriation, subjects",[2]; [4],0 (0.0) n (%)
same,"Fatigue, number of TEAEs",[2]; [4],2
same,"Fatigue, subjects",[2]; [4],2 (22.2) n (%)
same,"Headache, number of TEAEs",[2]; [4],2
same,"Headache, subjects",[2]; [4],2 (22.2) n (%)
same,"Muscle spasms, number of TEAEs",[2]; [4],1
same,"Muscle spasms, subjects",[2]; [4],1 (11.1) n (%)
same,"Muscle strain, subjects",[2]; [4],0 (0.0) n (%)
same,"Nausea, number of TEAEs",[2]; [4],2
same,"Nausea, subjects",[2]; [4],1 (11.1) n (%)
same,"Overall total TEAEs, subjects",[2]; [4],7 (77.8) n (%)
same,"Overall total, number of TEAEs",[2]; [4],14
same,"Rhinorrhea, subjects",[2]; [4],0 (0.0) n (%)
same,"Sneezing, number of TEAEs",[2]; [4],1
same,"Sneezing, subjects",[2]; [4],1 (11.1) n (%)
same,"Toothache, subjects",[2]; [4],0 (0.0) n (%)
same,"Upper respiratory tract infection, number of TEAEs",[2]; [4],1
same,"Upper respiratory tract infection, subjects",[2]; [4],1 (11.1) n (%)
same,"Abdominal discomfort, subjects",[2]; [5],0 (0.0) n (%)
same,"Abdominal pain, subjects",[2]; [5],0 (0.0) n (%)
same,"Application site irritation, number of TEAEs",[2]; [5],1
same,"Application site irritation, subjects",[2]; [5],1 (11.1) n (%)
same,"Complex regional pain, subjects",[2]; [5],0 (0.0) n (%)
same,"Constipation, subjects",[2]; [5],0 (0.0) n (%)
same,"Dry throat, subjects",[2]; [5],0 (0.0) n (%)
same,"Excoriation, subjects",[2]; [5],0 (0.0) n (%)
same,"Fatigue, subjects",[2]; [5],0 (0.0) n (%)
same,"Headache, subjects",[2]; [5],0 (0.0) n (%)
same,"Muscle spasms, subjects",[2]; [5],0 (0.0) n (%)
same,"Muscle strain, subjects",[2]; [5],0 (0.0) n (%)
same,"Nausea, subjects",[2]; [5],0 (0.0) n (%)
same,"Overall total TEAEs, subjects",[2]; [5],3 (33.3) n (%)
same,"Overall total, number of TEAEs",[2]; [5],3
same,"Rhinorrhea, subjects",[2]; [5],0 (0.0) n (%)
same,"Sneezing, subjects",[2]; [5],0 (0.0) n (%)
same,"Toothache, number of TEAEs",[2]; [5],1
same,"Toothache, subjects",[2]; [5],1 (11.1) n (%)
same,"Upper respiratory tract infection, number of TEAEs",[2]; [5],1
same,"Upper respiratory tract infection, subjects",[2]; [5],1 (11.1) n (%)
same,Number of gastrointestinal TEAEs,"[2]; Part 2, all evobrutinib doses",Seven
same,Subjects with fatigue,"[2]; Part 2, all evobrutinib doses",7.4%
same,Subjects with gastrointestinal TEAEs,"[2]; Part 2, all evobrutinib doses",18.5%
same,Subjects with headache,"[2]; Part 2, all evobrutinib doses",11.1%
same,Subjects with skin irritation due to ECG pads,"[2]; Part 2, all evobrutinib doses",7.4%
same,Subjects with upper respiratory tract infection,"[2]; Part 2, all evobrutinib doses",7.4%
same,Subjects with TEAEs,"[2]; Part 2, multiple dosing, all evobrutinib doses",48.1%
same,"Abdominal discomfort, number of TEAEs","[2]; Part 2, pooled active",1
same,"Abdominal discomfort, subjects","[2]; Part 2, pooled active",1 (3.7) n (%)
same,"Abdominal pain, number of TEAEs","[2]; Part 2, pooled active",2
same,"Abdominal pain, subjects","[2]; Part 2, pooled active",1 (3.7) n (%)
same,"Application site irritation, number of TEAEs","[2]; Part 2, pooled active",2
same,"Application site irritation, subjects","[2]; Part 2, pooled active",2 (7.4) n (%)
same,"Complex regional pain, number of TEAEs","[2]; Part 2, pooled active",1
same,"Complex regional pain, subjects","[2]; Part 2, pooled active",1 (3.7) n (%)
same,"Constipation, number of TEAEs","[2]; Part 2, pooled active",1
same,"Constipation, subjects","[2]; Part 2, pooled active",1 (3.7) n (%)
same,"Dry throat, number of TEAEs","[2]; Part 2, pooled active",1
same,"Dry throat, subjects","[2]; Part 2, pooled active",1 (3.7) n (%)
same,"Excoriation, number of TEAEs","[2]; Part 2, pooled active",1
same,"Excoriation, subjects","[2]; Part 2, pooled active",1 (3.7) n (%)
same,"Fatigue, number of TEAEs","[2]; Part 2, pooled active",2
same,"Fatigue, subjects","[2]; Part 2, pooled active",2 (7.4) n (%)
same,"Headache, number of TEAEs","[2]; Part 2, pooled active",3
same,"Headache, subjects","[2]; Part 2, pooled active",3 (11.1) n (%)
same,"Muscle spasms, number of TEAEs","[2]; Part 2, pooled active",1
same,"Muscle spasms, subjects","[2]; Part 2, pooled active",1 (3.7) n (%)
same,"Muscle strain, number of TEAEs","[2]; Part 2, pooled active",1
same,"Muscle strain, subjects","[2]; Part 2, pooled active",1 (3.7) n (%)
same,"Nausea, number of TEAEs","[2]; Part 2, pooled active",2
same,"Nausea, subjects","[2]; Part 2, pooled active",1 (3.7) n (%)
same,"Overall total TEAEs, subjects","[2]; Part 2, pooled active",13 (48.1) n (%)
same,"Overall total, number of TEAEs","[2]; Part 2, pooled active",23
same,"Rhinorrhea, number of TEAEs","[2]; Part 2, pooled active",1
same,"Rhinorrhea, subjects","[2]; Part 2, pooled active",1 (3.7) n (%)
same,"Sneezing, number of TEAEs","[2]; Part 2, pooled active",1
same,"Sneezing, subjects","[2]; Part 2, pooled active",1 (3.7) n (%)
same,"Toothache, number of TEAEs","[2]; Part 2, pooled active",1
same,"Toothache, subjects","[2]; Part 2, pooled active",1 (3.7) n (%)
same,"Upper respiratory tract infection, number of TEAEs","[2]; Part 2, pooled active",2
same,"Upper respiratory tract infection, subjects","[2]; Part 2, pooled active",2 (7.4) n (%)
same,"Application site irritation, number of TEAEs",[2]; [6],two
same,"Fatigue, number of TEAEs",[2]; [6],two
same,"Headache, number of TEAEs",[2]; [6],three
same,"Upper respiratory tract infection, number of TEAEs",[2]; [6],two
